The results in this text go back to patent US8901315B2, “Thienopyrazole derivative having PDE7 inhibitory activity” (Daiichi Sankyo Company, Limited, priority 2004, dated 2014).

Test [1] has as its target PDE 4 (phosphodiesterase IV). As to the kind of experiment: PDE 4 inhibiting effect (3H-cAMP hydrolysis, PDE 4 active fraction from Balb/c mouse liver). The test is classed as biochemical. Conditions: PDE 4 fraction from Balb/c mice liver, 0.064 μM cAMP, 2 hours at 25° C.; read-out: PDE4 IC50. The gist of the method:
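Activity was measured as 3H-cAMP hydrolysis, with Sephadex-QAE added after the reaction. The enzyme was a PDE4-active fraction from 12-week male Balb/c mouse liver, taken from the ultracentrifuged soluble fraction by DEAE sepharose chromatography (0.05-1 M sodium acetate gradient, pH 6.5 buffer).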

The target of test [2] is PDE 7 (phosphodiesterase VII) (Homo sapiens (Human), UniProt Q13946). As to the kind of experiment: PDE 7 inhibiting effect (3H-cAMP hydrolysis, PDE 7 active fraction from MOLT-4 cells). Conditions: PDE 7 fraction from MOLT-4 cells, 0.064 μM cAMP, 10 μM rolipram, 2 hours at 25° C.; read-out: PDE7 IC50. In kind it is biochemical. The gist of the method:
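³H-cAMP hydrolysis by a PDE7-active fraction was followed, and the reaction was worked up with a Sephadex-QAE suspension (10 mM HEPES-Na, pH 7.0). Enzyme came from MOLT-4 cell soluble extract (pH 7.5 Tris buffer, 100,000×G supernatant), fractionated by HiTrap Q anion exchange with a 0–0.8 M NaCl gradient.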

Structures are written as SMILES. Counter-ions that a name gives are not always drawn.

Sequence of PDE 7 (phosphodiesterase VII) (Q13946 whole entry): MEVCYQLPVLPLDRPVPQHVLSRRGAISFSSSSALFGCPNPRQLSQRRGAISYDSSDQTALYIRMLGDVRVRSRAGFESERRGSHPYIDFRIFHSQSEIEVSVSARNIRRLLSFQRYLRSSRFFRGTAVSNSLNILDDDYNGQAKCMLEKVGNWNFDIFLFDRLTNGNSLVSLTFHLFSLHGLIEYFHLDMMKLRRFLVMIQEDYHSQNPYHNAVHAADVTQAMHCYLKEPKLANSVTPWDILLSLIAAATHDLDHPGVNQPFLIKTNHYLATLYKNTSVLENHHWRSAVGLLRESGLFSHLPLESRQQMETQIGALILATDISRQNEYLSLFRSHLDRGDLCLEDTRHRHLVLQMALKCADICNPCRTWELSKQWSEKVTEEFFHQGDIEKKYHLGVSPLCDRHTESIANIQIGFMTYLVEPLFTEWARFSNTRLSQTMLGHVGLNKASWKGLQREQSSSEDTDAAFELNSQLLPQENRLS

In the case of `CCC(=O)N1CCc2cc(NC(=O)c3cc4c(C)nn(C5CCCCC5)c4s3)ccc21` [Example 21, 1-Cyclohexyl-3-methyl-N-(1-propionyl-2,3-dihydro-1H-indol-5-yl)-1H-thieno-[2,3-c]pyrazole-5-carboxamide], the IC50 in test [1] came out at 2500 nM; in test [2], 84 nM.

For the compound `CNC(=O)c1ccc(NC(=O)c2cc3c(C)nn(C4CCCCC4)c3s2)cn1` [Example 104, 1-Cyclohexyl-3-methyl-N-{6-[(methylamino)carbonyl]-3-pyridinyl}-1H-thieno[2,3-c]pyrazole-5-carboxamide], the IC50 is 1500 nM in test [1] and 58 nM in test [2].

With `Cc1nn(C2CCCCC2)c2sc(C(=O)Nc3ccc(N4CCC(O)CC4)c(C#N)c3)cc12` [Example 373, N-[3-Cyano-4-(4-hydroxy-1-piperidinyl)phenyl]-cyclohexyl-3-methyl-1H-thieno[2,3-c]pyrazole-5-carboxamide], the results for the IC50 in test [1] and in test [2] were 3400 nM and 4.5 nM, respectively.

Consider `COCCNC(=O)c1ccc(NC(=O)c2cc3c(C)nn(C4CCCCC4)c3s2)cc1` [Example 37, 1-Cyclohexyl-N-(4-{[(2-methoxyethyl)amino]carbonyl}phenyl)-3-methyl-1H-thieno[2,3-c]pyrazole-5-carboxamide], for which the half-maximal inhibitory concentration (IC50) in test [1] turned out to be 2000 nM; in test [2] it was 28 nM.

Turning to `Cc1nn(C2CCCCC2)c2sc(C(=O)N[C@H](C)CN3C(=O)CNC3=O)cc12` [Example 325, 1-Cyclohexyl-N-[(1R)-2-(2,5-dioxo-1-imidazolidinyl)-1-methylethyl]-3-methyl-1H-thieno[2,3-c]pyrazole-5-carboxamide], the IC50 in test [1] stood at 4000 nM; in test [2], 34 nM.

With `Cc1nn(C2CCOCC2)c2sc(C(=O)N[C@H]3CC[C@H](N4CCNC(=O)C4)CC3)cc12` [Example 417, 3-Methyl-N-[trans-4-(3-oxo-piperazinyl)cyclohexyl]-1-tetrahydro-2H-pyran-4-yl-1H-thieno[2,3-c]pyrazole-5-carboxamide], the IC50 came to 7000 nM in test [1] and 63 nM in test [2].

In the case of `Cc1nn(C2CCCCC2)c2sc(C(=O)Nc3ccc(C(=O)N4CCN(C)CC4)nc3)cc12` [Example 380, 1-Cyclohexyl-3-methyl N-{6-[(4-methyl-1-piperazinyl)carbonyl]-3-pyridinyl}-1H-thieno[2,3-c]pyrazole-5-carboxamide], the IC50 in test [1] stood at 1500 nM; in test [2], 56 nM.

For `Cc1nn(C2CCCCC2)c2sc(C(=O)Nc3ccc(N4CCC(O)CC4)c(Cl)c3)cc12` [Example 162, N-[3-Chloro-4-(4-hydroxy-piperidinyl)phenyl]-1-cyclohexyl-3-methyl-1H-thieno[2,3-c]pyrazole-5-carboxamide], the IC50 in test [1] amounted to 2000 nM; in test [2], 70 nM.

With `Cc1nn(C2CCCCC2)c2sc(C(=O)Nc3ccc(CCN4CCOCC4)cc3)cc12` [Example 201, 1-Cyclohexyl-3-methyl-N-{4-[2-(4-morpholinyl)ethyl]phenyl}-1H-thieno[2,3-c]pyrazole-5-carboxamide], the figures for the IC50 in test [1] and in test [2] were 2200 nM and 18 nM, respectively.

In the case of `Cc1nn(C2CCOCC2)c2sc(C(=O)Nc3ccc(N4CCN(C)CC4)c(F)c3)cc12` [Example 197, N-[3-Fluoro-4-(4-methyl-piperazinyl)phenyl]-3-methyl-1-tetrahydro-2H-pyran-4-yl-1H-thieno[2,3-c]pyrazole-5-carboxamide], the IC50 in test [1] stood at 4400 nM; in test [2], 79 nM.

As to `Cc1nn(C2CCCCC2)c2sc(C(=O)Nc3ccc(C4CCNCC4)cc3)cc12` [Example 141, 1-Cyclohexyl-3-methyl-N-[4-(4-piperidinyl)phenyl]-1H-thieno[2,3-c]pyrazole-5-carboxamide HCl salt], the IC50 was 1600 nM in test [1] and 22 nM in test [2].

Regarding `Cc1nn(C2CCCCC2)c2sc(C(=O)NCCN3C(=O)CNC3=O)cc12` [Example 305, 1-Cyclohexyl-N-[2-(2,5-dioxo-1-imidazolidinyl)ethyl]-3-methyl-1H-thieno[2,3-c]pyrazole-5-carboxamide], the IC50 in test [1] was determined as 6800 nM; in test [2], 66 nM.

As for `Cc1nn(C2CCCCC2)c2sc(C(=O)N[C@H]3CC[C@H](N4CCN(C)C4=O)CC3)cc12` [Example 280], the IC50 worked out at 1900 nM in test [1] and 17 nM in test [2].

As for `Cc1nn(C2CCOCC2)c2sc(C(=O)N[C@H]3CC[C@H](N4CCN(C)C(=O)C4)CC3)cc12` [Example 419, 3-Methyl-N-[trans-4-(4-methyl-3-oxo-1-piperazinyl)cyclohexyl]-1-tetrahydro-2H-pyran-4-yl-1H-thieno[2,3-c]pyrazole-5-carboxamide], the IC50 in test [1] was determined as 5700 nM; in test [2] it was 29 nM.

For `Cc1nn(C2CCCCC2)c2sc(C(=O)Nc3ccc4c(c3)CCN4S(C)(=O)=O)cc12` [Example 59, 1-Cyclohexyl-3-methyl-N-[1-(methylsulfonyl)-2,3-dihydro-1H-indol-5-yl]-1H-thieno[2,3-c]pyrazole-5-carboxamide], the IC50 was found to be 7000 nM in test [1] and 80 nM in test [2].

For the compound `Cc1nn(C2CCCCC2)c2sc(C(=O)N[C@H]3CC[C@H](CN4C(=O)CNC4=O)C3)cc12` [Example 258, 1-Cyclohexyl-N-{(1S,3S)-3-[(2,5-dioxo-1-imidazolidinyl)methyl]cyclopentyl}-3-methyl-1H-thieno[2,3-c]pyrazole-5-carboxamide], the IC50 in test [1] worked out at 4700 nM; in test [2], 15 nM.

In the case of `COCCN(C)[C@H]1CC[C@H](NC(=O)c2cc3c(C)nn(C4CCCCC4)c3s2)CC1` [Example 172, 1-cyclohexyl-N-{trans-4-[(2-methoxyethyl)(methyl)amino]-cyclohexyl}-3-methyl-1H-thieno[2,3-c]pyrazole-5-carboxamide], the IC50 in test [1] was 9400 nM; in test [2] it was 48 nM.

Regarding `Cc1nn(C2CCCCC2)c2sc(C(=O)Nc3ccc(N4CCNC4=O)nc3)cc12` [Example 256, 1-Cyclohexyl-3-methyl-N-[6-(2-oxo-1-imidazolidinyl)-3-pyridinyl]-1H-thieno[2,3-c]pyrazole-5-carboxamide], the IC50 came to 810 nM in test [1] and 2 nM in test [2].

For `Cc1nn(C2CCCCC2)c2sc(C(=O)Nc3ccc(N)cc3)cc12` [Example 99, N-(4-Aminophenyl)-1-cyclohexyl-3-methyl-1H-thieno[2,3-c]pyrazole-5-carboxamide], the IC50 in test [1] is 5000 nM; in test [2], 99 nM.

For `Cc1nn(C2CCCCC2)c2sc(C(=O)Nc3ccc(N4CCNCC4)cc3)cc12` [Example 72, 1-Cyclohexyl-3-methyl-N-[4-(1-piperazinyl)phenyl]-1H-thieno[2,3-c]pyrazole-5-carboxamide HCl salt], the IC50 in test [1] worked out at 1200 nM; in test [2] it was 10 nM.

For the compound `CNC(=O)Cc1ccc(NC(=O)c2cc3c(C)nn(C4CCCCC4)c3s2)cc1` [Example 70], the values for the IC50 in test [1] and in test [2] were 4700 nM and 25 nM, respectively.

Turning to `Cc1nn(C2CCCCC2)c2sc(C(=O)Nc3ccc(C(=O)NC(C)C)cc3)cc12` [Example 45, 1-Cyclohexyl-N-{4-[(isopropylamino)carbonyl]phenyl}-3-methyl-1H-thieno[2,3-c]pyrazole-5-carboxamide], the IC50 in test [1] worked out at 12000 nM; in test [2], 50 nM.

`Cc1cc(NC(=O)c2cc3c(C)nn(C4CCCCC4)c3s2)ccc1N1CCC(O)CC1` [Example 372]: the IC50 in test [1] is 4000 nM; in test [2], 11 nM.

For `Cc1nn(C2CCCCC2)c2sc(C(=O)N[C@H]3CC[C@H](N4CCNC4=O)CC3)cc12` [Example 271, 1-Cyclohexyl-3-methyl-N-[trans-4-(2-oxo-1-imidazolidinyl)-cyclohexyl]-1H-thieno[2,3-c]pyrazole-5-carboxamide], the IC50 was 2100 nM in test [1] and 8.9 nM in test [2].

`Cc1nn(C2CCCCC2)c2sc(C(=O)NCCN3CCN(C)C3=O)cc12` [Example 302, 1-Cyclohexyl-3-methyl-N-[2-(3-methyl-2-oxo-imidazolidinyl)ethyl]-1H-thieno[2,3-c]pyrazole-5-carboxamide]: the IC50 in test [1] was found to be 6100 nM; in test [2] it was 60 nM.

In the case of `Cc1nn(C2CCCCC2)c2sc(C(=O)N[C@H]3CC[C@H](C(=O)N4CCC(O)CC4)CC3)cc12` [Example 239, 1-Cyclohexyl-N-{4-[(4-hydroxy-1-piperidinyl)carbonyl]cyclohexyl}-3-methyl-1H-thieno[2,3-c]pyrazole-5-carboxamide], the IC50 in test [1] is 2600 nM; in test [2] it was 15 nM.

For `Cc1nn(C2CCCCC2)c2sc(C(=O)Nc3ccc4c(c3)CCN4C(=O)C3CC3)cc12` [Example 58, 1-Cyclohexyl-N-[1-(cyclopropylcarbonyl)-2,3-dihydro-1H-indol-5-yl]-3-methyl-1H-thieno[2,3-c]pyrazole-5-carboxamide], the IC50 was found to be 3600 nM in test [1] and 36 nM in test [2].

For `Cc1nn(C2CCCCC2)c2sc(C(=O)Nc3ccc4c(c3)CC(=O)N4)cc12` [Example 26, 1-Cyclohexyl-3-methyl-N-(2-oxo-2,3-dihydro-1H-indol-5-yl)-1H-thieno[2,3-c]pyrazole-5-carboxamide], the IC50 turned out to be 3000 nM in test [1] and 44 nM in test [2].

On to `Cc1nn(C2CCCCC2)c2sc(C(=O)Nc3ccc4c(c3)CCN4C(=O)C(C)C)cc12` [Example 23], for which the IC50 is 4800 nM in test [1] and 83 nM in test [2].

On to `Cc1nn(C2CCOCC2)c2sc(C(=O)Nc3ccc(N4CCN(C)CC4)cc3)cc12` [Example 196, 3-Methyl-N-[4-(4-methyl-1-piperazinyl)phenyl]-1-tetrahydro-2H-pyran-4-yl-1H-thieno[2,3-c]pyrazole-5-carboxamide], for which the IC50 in test [1] was determined as 7500 nM; in test [2], 90 nM.
